Experimental data taken from ChEMBL document CHEMBL4616697, “Discovery of Adamantane Carboxamides as Ebola Virus Cell Entry and Glycoprotein Inhibitors” (ACS Med Chem Lett, 2020).
Values after ≈ are worked out from the molar mass of the structure shown.

Columns and labels:
[1] = Kinetic aqueous solubility of compound in PBS at pH 6.4 to 7.5 measured after 2 hrs by spectrophotometry analysis; assay type: physicochemical; settings: read-out: Kinetic_solubility
[2] = Inhibition of glycoprotein in VSV pseudotyped Ebolavirus infected in African green monkey Vero cells assessed as reduction in virus entry incubated for 24 hrs by luciferase reporter gene assay; assay type: cell-based
[3] = Aqueous solubility of compound in PBS at pH 7.4 measured after 2 hrs by spectrophotometry analysis; assay type: physicochemical
[4] = Metabolic stability in mouse liver microsomes assessed as parent compound remaining at 1 uM pretreated for 30 mins followed by NADPH addition and measured after 60 mins by LC-MS/MS analysis; assay type: ADME, Microsome; settings: read-out: Stability
[5] = Selectivity index, ratio of CC50 for African green monkey Vero E6 cells assessed as reduction in cell viability incubated for 10 days by neutral red dye based spectrophotometry analysis to EC90 for wild type Ebolavirus infected in African green monkey Vero E6 cells assessed as reduction in viral replication by virus yield reduction assay; assay type: toxicity, Vero C1008; settings: read-out: Selectivity Index
[6] = Cytotoxicity against African green monkey Vero E6 cells assessed as reduction in cell viability incubated for 10 days by neutral red dye based spectrophotometry analysis; set-up: species or system Vero C1008; settings: chlorocebus sabaeus
Ebolavirus [7] = test: Antiviral activity against wild type Ebolavirus infected in African green monkey Vero E6 cells assessed as inhibition of viral entry compound treated with primary viral infected cells for 60 mins and after 3 days post-infection measured following 10 days of compound incubation with fresh cells infected with primary culture supernatants by virus yield reduction assay; assay type: functional; settings: Orthoebolavirus, Vero C1008
[8] = Metabolic stability in Cynomolgus monkey liver microsomes assessed as parent compound remaining at 1 uM pretreated for 30 mins followed by NADPH addition and measured after 60 mins by LC-MS/MS analysis; assay type: ADME, Macaca fascicularis, Microsome; settings: read-out: Stability
[9] = Metabolic stability in human liver microsomes assessed as parent compound remaining at 1 uM pretreated for 30 mins followed by NADPH addition and measured after 60 mins by LC-MS/MS analysis; assay type: ADME, Microsome; settings: for Stability: microsomes, 1 h, 1 µM; for remaining at 1 h, 1 µM: liver microsomes, read-out: Stability
Ebolavirus [10] = test: Antiviral activity against wild type Ebolavirus infected in African green monkey Vero cells assessed as reduction in plaque forming units incubated for 10 days by crystal violet staining based assay; assay type: functional, organism-based; settings: Orthoebolavirus, 240 h
[11] = Metabolic stability in rat liver microsomes assessed as parent compound remaining at 1 uM pretreated for 30 mins followed by NADPH addition and measured after 60 mins by LC-MS/MS analysis; assay type: ADME, Microsome; settings: read-out: Stability
[12] = Metabolic stability in dog liver microsomes assessed as parent compound remaining at 1 uM pretreated for 30 mins followed by NADPH addition and measured after 60 mins by LC-MS/MS analysis; assay type: ADME, Canis lupus familiaris, Microsome; settings: read-out: Stability
[13] = Metabolic stability in guinea pig liver microsomes assessed as parent compound remaining at 1 uM pretreated for 30 mins followed by NADPH addition and measured after 60 mins by LC-MS/MS analysis; assay type: ADME, Cavia porcellus, Microsome; settings: read-out: Stability

| SMILES | solubility kinetic at 2 h [1] | EC50 ([2]; Orthoebolavirus, Vero, 24 h) | further results |
| --- | --- | --- | --- |
| O=C(N1CCc2ccccc2C1)C12CC3CC(C1)CC(c1ccccc1)(C3)C2 | > 100 µM | 2300 nM |  |
| O=C(NC1CCNCC1)C12CC3CC1CC(c1ccccc1)(C3)C2 (stereo not given) | > 100 µM | 330 nM |  |
| c1ccc(C23CC4CC(CC(CNC5CCNCC5)(C4)C2)C3)cc1 | > 100 µM | 470 nM |  |
| O=C(NC1CCNCC1)C12CC3CC(C1)CC(c1ccc(Cl)cc1)(C3)C2 | > 100 µM | 190 nM |  |
| C[C@@]12C[C@H]3C[C@@](C(=O)NC4CCNCC4)(C1)C[C@](c1ccccc1)(C3)C2 |  |  | EC50 ([2]; vero): 240 nM |
| C[C@]12C[C@@H]3C[C@](C(=O)NC4CCNCC4)(C1)C[C@@](c1ccccc1)(C3)C2 |  |  | solubility at 2 h [3]: > 20 mg/mL; remaining at 1 h, 1 µM [4]: 86%; EC50 ([2]; vero): 28 nM; selectivity ratio at 240 h [5]: 34; CC50 at 240 h [6]: 71000 nM; EC90 (Ebolavirus [7]): 2100 nM; remaining at 1 h, 1 µM [8]: 83%; Stability [9]: 81% |
| O=C(N1CCNCC1)C12CC3CC(C1)CC(c1ccccc1)(C3)C2 | > 100 µM | 260 nM |  |
| COc1ccc(C23CC4CC(CC(C(=O)NC5CCNCC5)(C4)C2)C3)cc1 | > 100 µM | 380 nM |  |
| CC12CC3(C)CC(C(=O)NC4CCNCC4)(C1)CC(c1ccccc1)(C2)C3 | > 100 µM | 320 nM |  |
| O=C(NC1CCN(Cc2ccccc2)CC1)C12CC3CC(C1)CC(c1ccccc1)(C3)C2 | > 100 µM | 380 nM |  |
| O=C(NC1CCNCC1)C12CC3CC(C1)CC(c1ccc(F)cc1)(C3)C2 | > 100 µM | 310 nM |  |
| O=C(NC12CC3CC(C1)CC(c1ccccc1)(C3)C2)C1CCNCC1 | > 100 µM | > 1000 nM |  |
| O=C(NC1CCNCC1)C1C2CC3CC1CC(c1ccccc1)(C3)C2 (stereo not given) | > 100 µM | 180 nM |  |
| CN1CCC(N(C)C(=O)C23CC4CC(C2)CC(c2ccccc2)(C4)C3)CC1 | > 100 µM | 280 nM |  |
| O=C(NC1CCNCC1)C12CC3CC(C1)CC(c1ccc(O)cc1)(C3)C2 | > 100 µM | 1700 nM |  |
| CN1CCC(NC(=O)C23CC4CC(C2)CC(c2ccccc2)(C4)C3)CC1 | > 100 µM | 160 nM |  |
| NC1CCN(C(=O)C23CC4CC(C2)CC(c2ccccc2)(C4)C3)CC1 | > 100 µM | 120 nM |  |
| O=C(CC12CC3CC(C1)CC(c1ccccc1)(C3)C2)NC1CCNCC1 | > 100 µM | 490 nM |  |
| O=C(NC1CCNCC1)NC12CC3CC(C1)CC(c1ccccc1)(C3)C2 | > 100 µM | > 1000 nM |  |
| O=C(NC1CCNCC1)C12CC3CC(C1)CC(c1ccc([N+](=O)[O-])cc1)(C3)C2 | > 100 µM | > 3000 nM |  |
| O=C(NC1CCNCC1)C12CC3CC(C1)CC(c1ccccc1)(C3)C2 | > 100 µM | 72 nM |  |

| SMILES | solubility kinetic at 2 h [1] | EC50 ([2]; Orthoebolavirus, Vero, 24 h) | further results |
| --- | --- | --- | --- |
| C[C@H]1C[C@H](NC(=O)C23CC4CC(C)(C2)CC(c2ccccc2)(C4)C3)CCN1 (mixture of isomers) | > 100 µM | 46 nM | remaining at 1 h, 1 µM [9]: 75% |
| CC12CC3CC(C(=O)N[C@@H]4CCNC[C@H]4F)(C1)CC(c1ccccc1)(C3)C2 (mixture of isomers) | > 100 µM | 33 nM | remaining at 1 h, 1 µM [9]: 60% |
| CCC12CC3CC(C(=O)N[C@H]4CC[C@H](N)CC4)(C1)CC(c1ccccc1)(C3)C2 (mixture of isomers) | > 100 µM |  | EC50 ([2]; vero): 10 nM; remaining at 1 h, 1 µM [9]: 71% |
| CC12CC3CC(C(=O)N4CCNCC4)(C1)CC(c1ccccc1)(C3)C2 (racemic) | > 100 µM | 130 nM | remaining at 1 h, 1 µM [9]: 100% |
| CC12CC3CC(C(=O)NC4CCNCC4)(C1)CC(c1ccccc1)(C3)C2 (racemic) | > 100 µM |  | EC50 ([2]; vero): 43 nM; remaining at 1 h, 1 µM [9]: 75% |
| CC12CC3CC(C(=O)N4CCC(N)CC4)(C1)CC(c1ccccc1)(C3)C2 (racemic) | > 100 µM | 51 nM | remaining at 1 h, 1 µM [9]: 81% |
| CCC12CC3CC(C(=O)NC4CCNCC4)(C1)CC(c1ccccc1)(C3)C2 (racemic) | > 100 µM | 20 nM | remaining at 1 h, 1 µM [9]: 69% |
| CC12CC3CC(C(=O)NCC4CCNCC4)(C1)CC(c1ccccc1)(C3)C2 (racemic) | > 100 µM | 420 nM |  |
| CC12CC3CC(C(=O)NC4CC5(CC(N)C5)C4)(C1)CC(c1ccccc1)(C3)C2 (racemic) | > 100 µM | 40 nM | remaining at 1 h, 1 µM [9]: 79% |
| CC12CC3CC(C(=O)N[C@H]4CC[C@@H](N)CC4)(C1)CC(c1ccccc1)(C3)C2 (mixture of isomers) | > 100 µM | 110 nM | remaining at 1 h, 1 µM [9]: 87% |
| CC12CC3CC(C(=O)N[C@H]4CC[C@H](N)CC4)(C1)CC(c1ccccc1)(C3)C2 (mixture of isomers) | > 100 µM |  | EC50 ([2]; vero): 31 nM; remaining at 1 h, 1 µM [9]: 92% |
| CC12CC3CC(C(=O)N[C@H]4CC[C@H](CN)CC4)(C1)CC(c1ccccc1)(C3)C2 (mixture of isomers) | > 100 µM |  | EC50 ([2]; vero): 30 nM; remaining at 1 h, 1 µM [9]: 75% |
| CC12CC3CC(C(=O)NC4CNC4)(C1)CC(c1ccccc1)(C3)C2 (racemic) | > 100 µM | 280 nM |  |
| CC12CC3CC(C(=O)N[C@H]4[C@@H]5CNC[C@@H]54)(C1)CC(c1ccccc1)(C3)C2 (mixture of isomers) | 61 µM (≈ 21.4 µg/mL) | 120 nM |  |
| CC12CC3CC(C(=O)NCCN)(C1)CC(c1ccccc1)(C3)C2 (racemic) | > 100 µM | 250 nM |  |
| CC12CC3CC(C(=O)N[C@H]4CC[C@H](N)CC4)(C1)CC(c1ccccc1)(C3)C2 (stereo in doubt; 38) |  |  | EC50 (Ebolavirus [10]): 240 nM; solubility at 2 h [3]: > 20 mg/mL; remaining at 1 h, 1 µM [4]: 74%; EC50 ([2]; vero): 14 nM; remaining at 1 h, 1 µM [11]: 63%; remaining at 1 h, 1 µM [12]: 96%; selectivity ratio at 240 h [5]: 77; CC50 at 240 h [6]: 58000 nM; EC90 (Ebolavirus [7]): 750 nM; remaining at 1 h, 1 µM [13]: 100%; remaining at 1 h, 1 µM [8]: 89%; Stability [9]: 100% |
| CC12CC3CC(C(=O)N[C@H]4CC[C@H](N)CC4)(C1)CC(c1ccccc1)(C3)C2 (stereo in doubt; 39) |  |  | EC50 ([2]; vero): 140 nM |
| CC12CC3CC(C(=O)N[C@H]4CC[C@H](CN)CC4)(C1)CC(c1ccccc1)(C3)C2 (stereo in doubt; 40) |  |  | EC50 (Ebolavirus [10]): 430 nM; solubility at 2 h [3]: > 20 mg/mL; remaining at 1 h, 1 µM [4]: 27%; EC50 ([2]; vero): 10 nM; remaining at 1 h, 1 µM [11]: 27%; remaining at 1 h, 1 µM [12]: 85%; selectivity ratio at 240 h [5]: 40; CC50 at 240 h [6]: 22000 nM; EC90 (Ebolavirus [7]): 550 nM; remaining at 1 h, 1 µM [13]: 99%; remaining at 1 h, 1 µM [8]: 61%; Stability [9]: 82% |
| CC12CC3CC(C(=O)N[C@H]4CC[C@H](CN)CC4)(C1)CC(c1ccccc1)(C3)C2 (stereo in doubt; 41) |  |  | EC50 ([2]; vero): 74 nM |
| CCC12CC3CC(C(=O)N[C@H]4CC[C@H](N)CC4)(C1)CC(c1ccccc1)(C3)C2 (stereo in doubt; 43) |  |  | EC50 ([2]; vero): 350 nM |
